This note sets out measurements from ChEMBL document CHEMBL1201862, “PubChem BioAssay data set” (2004).

SMILES strings stand for the structures.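 Exposure lasted 48 hours, with cells grown in 96-well plates and compounds tested at five concentrations. The concentration for 50% growth inhibition is given as GI50.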 Active and inactive are the calls of the source. Rule as the data show it: active = GI50 up to about 1.1 µM and inactive = higher. Bounds are passed on as bounds.

What all share (assay): NCI tumour cell line growth inhibition, 48 h
The subject of assay [1] is K562.
The test system of assay [2] is SW-620.
Assay [3] has as its system UACC-62.
Assay [4] has as its system HCT-15.
For assay [5], the system named is SK-OV-3.
The subject of assay [6] is HT-29.
The subject of assay [7] is NCI-H460.
For assay [8], the system named is OVCAR-5.
The subject of assay [9] is HOP-62.
For assay [10], the system named is OVCAR-8.
Assay [11] has as its system SK-MEL-5.
The test system of assay [12] is SNB-19.
The subject of assay [13] is HCT-116.
Assay [14] concerns SN12C.
Assay [15] deals with SF-539.

`COC(=O)C(Br)C1CCc2ccccc21` (stereo unspecified): the GI50 in assay [1] was 52.7 µM (inactive); in assay [2], > 100 µM (inactive); in [3] it was > 100 µM (inactive); in [4] it was greater than 100 µM; in assay [5] it was > 100 µM (inactive); in [6], > 100 µM (inactive). Also, the GI50 was > 100 µM (inactive) in assay [7]; > 100 µM (inactive) in assay [8]; > 100 µM (inactive) in [9]; > 100 µM (inactive) in assay [10]; > 100 µM (inactive) in [11]; 82.2 µM (inactive) in assay [12]. Moreover, the GI50 in [13] and in assay [14] was > 100 µM (inactive) each time.
Turning to `COC(=O)CC(NC(=O)OCc1ccccc1)C(C(=O)OCc1ccccc1)C(C)(OC)OC` (stereo unspecified), the GI50 in assay [1] was 10.6 µM (inactive); in assay [2] it was 32.9 µM (inactive); in [3] it was 10.5 µM (inactive); in assay [4], 32.1 µM; in assay [15] it was 29.2 µM (inactive); in [6], 34.6 µM (inactive). Besides, the GI50 in assay [7] was 31.7 µM (inactive); in assay [9], 44.9 µM (inactive); in assay [10] it was 19.5 µM (inactive); in assay [11], 12.4 µM (inactive); in assay [12] it was 38.2 µM (inactive); in assay [13], 34.3 µM (inactive). For the same molecule, the GI50 in [14] is 30.5 µM (inactive).
For `CCCP1(=O)C=C(C)C(=C(Cl)Cl)C(C)=C1` (stereo unspecified), the GI50 in assay [1] is 30.8 µM (inactive); in assay [2], 32.1 µM (inactive); in assay [3], 44 µM (inactive); in assay [4], 30.7 µM; in assay [15] it was 37.3 µM (inactive); in assay [6], 43 µM (inactive). Further, the GI50 in assay [7] was 37.4 µM (inactive); in [8], > 100 µM (inactive); in [9] it was 49.3 µM (inactive); in assay [10], 37.9 µM (inactive); in assay [11] it was 24.1 µM (inactive); in assay [13] it was 41.2 µM (inactive). Moreover, in [14], the GI50 is 24.6 µM (inactive).
Regarding `COc1c(C)n(CCO)ccc1=O`, the GI50 in assay [1] was > 100 µM (inactive); in assay [2] it was > 100 µM (inactive); in [3], > 100 µM (inactive); in assay [4], greater than 100 µM; in assay [5], > 100 µM (inactive); in assay [6], > 100 µM (inactive). The GI50 in assay [7], in assay [8], in [9], in assay [10], in [11] and in [12] was > 100 µM (inactive) in each case. Also, the GI50 in [13] and in assay [14] was > 100 µM (inactive) throughout.
Consider `CC(=O)C1=NN(c2ccccc2)C2(S1)SC(c1ccccc1)(c1ccccc1)c1ccccc12` (stereo unspecified), for which the GI50 was 32.4 µM (inactive) in [1]; 99.1 µM (inactive) in assay [2]; 17.9 µM (inactive) in [3]; greater than 100 µM in [4]; 30.8 µM (inactive) in [5]; 60.8 µM (inactive) in assay [15]. Also, the GI50 is 95.3 µM (inactive) in [6]; 32.3 µM (inactive) in assay [7]; 34.6 µM (inactive) in assay [9]; 34.9 µM (inactive) in [10]; 62.2 µM (inactive) in assay [12]; 24.4 µM (inactive) in assay [13]. The GI50 in [14] was > 100 µM (inactive).
Consider `CCCCCCCCCCCCCC(=O)NCO`, for which the GI50 in assay [2] was > 100 µM (inactive); in [3] it was > 100 µM (inactive); in assay [4] it was greater than 100 µM; in [5], > 100 µM (inactive); in [15], > 100 µM (inactive); in assay [6] it was > 100 µM (inactive). For the same molecule, the GI50 in assay [7], in [8], in assay [9], in [10], in assay [11] and in assay [12] was > 100 µM (inactive) throughout. Also, the GI50 in assay [13] and in assay [14] was > 100 µM (inactive) in each case.
